For 21 molecules, IC50 results are on record in patent US12187713B2, “Immunomodulators, compositions and methods thereof” (Betta Pharmaceuticals Co., Ltd, priority 2019, dated 2025).

Structures can show the parent of a compound that is named as a salt.

For the first experiment, the target named is PD-1/PD-L1 (Homo sapiens (Human), UniProt Q9NZQ7). The experiment can be described thus: PD-1/PD-L1 Binding Assay (Alphascreen). Particulars: numeric values. As for the experimental part: PD-1/PD-L1 Binding Assay (Alphascreen)
Sequence of PD-1/PD-L1 (Q9NZQ7 19-238): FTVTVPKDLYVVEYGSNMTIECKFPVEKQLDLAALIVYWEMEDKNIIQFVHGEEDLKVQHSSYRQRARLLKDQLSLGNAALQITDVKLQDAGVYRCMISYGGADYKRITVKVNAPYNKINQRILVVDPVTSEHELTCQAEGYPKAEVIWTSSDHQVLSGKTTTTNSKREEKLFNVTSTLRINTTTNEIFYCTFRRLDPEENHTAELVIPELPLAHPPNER
The assays were conducted in a standard black 384-well polystyrene plate with a final volume of 20 μL. Inhibitors were first serially diluted in DMSO and then added to the plate wells before the addition of other reaction components. The final concentration of DMSO in the assay was […]. Add 100 nL/well of compound to the 384 reaction plate (6008280, PerkinElmer) with Echo and centrifuge at 1000 rpm for 1 minute. Add 5 μL/well 4×PD-L1 solutions to the 384 reaction plate, centrifuge at 1000 rpm for 1 minute, and add 5 μL/well 4×PD-1 solutions, centrifuge at 1000 rpm for 1 minute, and incubate at 25° C. for 15 minutes. The concentrations of the compounds were 300, 100, 33.33, 11.11, 3.70, 1.23, 0.41, 0.137, 0.046, 0.015, 0 nM, respectively. Add 10 μL/well 2× Anti-6×His AlphaLISA Acceptor beads and Streptavidin Donor beads solution (PerkinElmer-AL356F) to the above 384 reaction plate, centrifuge at 1000 rpm for 1 minute, and incubate at 25° C. in the dark for 120 minutes. Read the AlphaLISA signal value using the Envision Reader. IC50 determination was performed by fitting the curve of percent control activity versus the log of the inhibitor concentration using the GraphPad Prism 8.0 software.
Background: Bead proximity is the source of the signal in Alpha formats.
For `CCNCc1cc2nc(-c3cccc(-c4cccc(-c5nc6cc(CN7CCC[C@H]7C(=O)O)c(OC(F)F)cc6o5)c4C)c3C)oc2cc1OC(F)F` [Example 21, ((6-(difluoromethoxy)-2-(3′-(6-(difluoromethoxy)-5-((ethylamino)methyl)benzo[d]oxazol-2-yl)-2,2′-dimethyl-[1,1′-biphenyl]-3-yl)benzo[d]oxazol-5-yl)methyl)-L-proline], the IC50 amounted to 0.59 nM. This counts as sub-nanomolar.
Regarding `Cc1c(Nc2nccc3cc(CNCC(=O)O)cnc23)cccc1-c1cccc(-c2nc3cc(CN4CCC[C@H]4C(=O)O)c(OC(F)F)cc3o2)c1C` [Example 172, ((2-(3′-((3-(((carboxymethyl)amino)methyl)-1,7-naphthyridin-8-yl)amino)-2,2′-dimethyl-[1,1′-biphenyl]-3-yl)-6-(difluoromethoxy)benzo[d]oxazol-5-yl)methyl)-L-proline], the IC50 turned out to be 0.3 nM.
Same read-out and setting: as for `Cc1c(-c2ccc(CN3CCCC3)c(OC(F)(F)F)c2)cccc1-c1cccc(-c2nc3cc(CN4CCC[C@H]4C(=O)O)c(OC(F)F)cc3o2)c1C` [Example 232, ((6-(difluoromethoxy)-2-(2,2′-dimethyl-4″- (pyrrolidin-1-ylmethyl)-3″-(trifluoromethoxy)-[1,1′:3′,1″-terphenyl]-3-yl)benzo[d]oxazol-5-yl)methyl)-L-proline], the figure is 7.8 nM.
Still for that read-out and setting: as for `Cc1c(-c2nc3cc(CN(C)CCN(C)C)c(OC(F)F)cc3o2)cccc1-c1cccc(-c2nc3cc(CN4CCC[C@H]4C(=O)O)c(OC(F)F)cc3o2)c1C` [Example 59, ((6-(difluoromethoxy)-2-(3′-(6-(difluoromethoxy)-5-(((2-(dimethylamino)ethyl)(methyl)amino)methyl)benzo [d]oxazol-2-yl)-2,2′-dimethyl-[1,1′-biphenyl]-3-yl)benzo[d]oxazol-5-yl)methyl)-L-proline], the figure is 2.5 nM; as for `Cc1c(-c2nc3cc(CN4CCC[C@H]4C(=O)O)c(OC(F)F)cc3o2)cccc1-c1cccc(-c2nc3cc(CN4CC(C)(C)C4)c(OC(F)F)cc3o2)c1C#N` [Example 4, ((2-(2′-cyano-3′-(6-(difluoromethoxy)-5-((3,3-dimethylazetidin-1-yl)methyl)benzo[d]oxazol-2-yl)-2-methyl-[1,1′-biphenyl]-3-yl)-6-(difluoromethoxy)benzo[d]oxazol-5-yl)methyl)-L-proline], 1.4 nM.
Same read-out and setting: as for `COc1cc(-c2cccc(-c3cccc(-c4nc5cc(CN6CCC[C@H]6C(=O)O)c(OC(F)F)cc5o4)c3C)c2C)cc(OC)c1CN1CCCC1` [Example 254, ((6-(difluoromethoxy)-2-(3″,5″-dimethoxy-2,2′-dimethyl-4″-(pyrrolidin-1-ylmethyl)-[1,1′:3′,1″- terphenyl]-3-yl)benzo[d]oxazol-5-yl)methyl)-L-proline hydrochloride], the figure is 16 nM; as for `Cc1c(Nc2nccc3cc(CN4CCOCC4)cnc23)cccc1-c1cccc(-c2nc3cc(CN4CCC[C@H]4C(=O)O)c(OC(F)F)cc3o2)c1C` [Example 176, ((6-(difluoromethoxy)-2-(2,2′-dimethyl-3′-((3-(morpholinomethyl)-1,7-naphthyridin-8-yl)amino)-[1,1′-biphenyl]-3-yl)benzo[d]oxazol-5-yl)methyl)-L-proline], 0.9 nM; as for `Cc1c(-c2ccc(CN3CCCC3)c(Cl)c2)cccc1-c1cccc(-c2nc3cc(CN4CCC[C@H]4C(=O)O)c(OC(F)F)cc3o2)c1C` [Example 229, ((2-(3″-chloro-2,2′-dimethyl-4″-(pyrrolidin-1-ylmethyl)-[1,1′:3′,1″-terphenyl]-3-yl)-6-(difluoromethoxy)benzo[d]oxazol-5-yl)methyl)-L-proline], 6.9 nM.

The same experiment, now with this note: range symbols.
In the case of `Cc1c(-c2nc3cc(CN4CC(C)(C#N)C4)c(OC(F)F)cc3o2)cccc1-c1cccc(-c2nc3cc(CN4CCC[C@H]4C(=O)O)c(OC(F)F)cc3o2)c1C` [Example 79, ((2-(3′-(5-((3-cyano-3-methylazetidin-1-yl)methyl)-6-(difluoromethoxy)benzo[d]oxazol-2-yl)-2,2′-dimethyl-[1,1′-biphenyl]-3-yl)-6-(difluoromethoxy)benzo[d]oxazol-5-yl)methyl)-L-proline], the IC50 lay in the range of 0.1 to 5 nM.
On the same count and under the same terms, then `Cc1c(-c2nc3c(o2)CCN(CCCO)C3)cccc1-c1cccc(-c2nc3cc(CN4CCC[C@H]4C(=O)O)c(OC(F)F)cc3o2)c1C` [Example 199, ((6-(difluoromethoxy)-2-(3′-(5-(3-hydroxypropyl)-4,5,6,7-tetrahydrooxazolo[4,5-c]pyridin-2-yl)-2,2′-dimethyl-[1,1′-biphenyl]-3-yl)benzo[d]oxazol-5-yl)methyl)proline], with 5 to 50 nM.
The same measure, in the same setting: as for `Cc1c(-c2nc3cc(CN4CC(C)(CO)C4)c(OC(F)F)cc3o2)cccc1-c1cccc(-c2nc3cc(CN4CCC[C@H]4C(=O)O)c(OC(F)F)cc3o2)c1C` [Example 78, ((6-(difluoromethoxy)-2-(3′-(6-(difluoromethoxy)-5-((3-(hydroxymethyl)-3-methylazetidin-1-yl)methyl)benzo[d]oxazol-2-yl)-2,2′-dimethyl-[1,1′-biphenyl]-3-yl)benzo[d]oxazol-5-yl)methyl)-L-proline], the figure is 0.1 to 5 nM; as for `Cc1c(-c2ccc3c(c2)CN(C(C)C(=O)O)C3)cccc1-c1cccc(-c2nc3cc(CN4CCC[C@H]4C(=O)O)c(OC(F)F)cc3o2)c1C` (stereo partly drawn) [Example 292, ((2-(3′-(2-(1-carboxyethyl)isoindolin-5-yl)-2,2′-dimethyl-[1,1′-biphenyl]-3-yl)-6-(difluoromethoxy)benzo[d]oxazol-5-yl)methyl)-L-proline], 5 to 50 nM.
Still for that read-out and setting: as for `Cc1c(-c2nc3cc(CN[C@@H]4CCC[C@@H]4O)ccc3o2)cccc1-c1cccc(-c2nc3cc(CN4CCC[C@@H]4C(=O)O)c(OC(F)F)cc3o2)c1C` [Example 310, ((6-(difluoromethoxy)-2-(3′-(5-((((1R,2S)-2-hydroxycyclopentyl)amino)methyl)benzo[d]oxazol-2-yl)-2,2′-dimethyl-[1,1′-biphenyl]-3-yl)benzo[d]oxazol-5-yl)methyl)-D-proline], the figure is 0.1 to 5 nM; as for `Cc1c(-c2ccc([C@H](N)C(=O)O)cc2)cccc1-c1cccc(-c2nc3cc(CN4CCC[C@H]4C(=O)O)c(OC(F)F)cc3o2)c1C` [Example 256, ((2-(4″-((S)-amino(carboxy)methyl)-2,2′-dimethyl-[1,1′:3′,1″-terphenyl]-3-yl)-6-(difluoromethoxy)benzo[d]oxazol-5-yl)methyl)-L-proline], > 50 nM; as for `Cc1c(-c2nc3cc(CN4CC5CCCC5C4)c(OC(F)F)cc3o2)cccc1-c1cccc(-c2nc3cc(CN4CCC[C@H]4C(=O)O)c(OC(F)F)cc3o2)c1C` (stereo partly drawn) [Example 49, ((6-(difluoromethoxy)-2-(3′-(6-(difluoromethoxy)-5-((hexahydrocyclopenta [c]pyrrol-2(1H)-yl)methyl)benzo[d]oxazol-2-yl)-2,2′-dimethyl-[1,1′-biphenyl]-3-yl)benzo[d]oxazol-5-yl)methyl)-L-proline], 0.1 to 5 nM.
In turn, `Cc1c(-c2nc3cc(CN4CC(=CC#N)C4)c(OC(F)F)cc3o2)cccc1-c1cccc(-c2nc3cc(CN4CCC[C@H]4C(=O)O)c(OC(F)F)cc3o2)c1C` [Example 82, ((2-(3′-(5-((3-(cyanomethylene)azetidin-1-yl)methyl)-6-(difluoromethoxy)benzo[d]oxazol-2-yl)-2,2′-dimethyl-[1,1′-biphenyl]-3-yl)-6-(difluoromethoxy)benzo[d]oxazol-5-yl)methyl)-L-proline] displayed a 50% inhibitory concentration (IC50) of 0.1 to 5 nM.
Still for that read-out and setting: as for `Cc1c(Nc2nccc3cc(CN4CCC(O)C4)cnc23)cccc1-c1cccc(-c2nc3cc(CN4CCC[C@@H]4C(=O)O)c(OC(F)F)cc3o2)c1C` (stereo partly drawn) [Example 182, ((6-(difluoromethoxy)-2-(3′-((3-((3-hydroxypyrrolidin-1-yl)methyl)-1,7-naphthyridin-8-yl)amino)-2,2′-dimethyl-[1,1′-biphenyl]-3-yl)benzo[d]oxazol-5-yl)methyl)-D-proline], the figure is 0.1 to 5 nM.
Same read-out and setting: then `Cc1c(-c2nc3cc(CN4CCCC4(C)C)ccc3o2)cccc1-c1cccc(-c2nc3cc(CN4CCC[C@H]4C(=O)O)c(OC(F)F)cc3o2)c1C` [Example 311, ((6-(difluoromethoxy)-2-(3′-(5-((2,2-dimethylpyrrolidin-1-yl)methyl)benzo[d]oxazol-2-yl)-2,2′-dimethyl-[1,1′-biphenyl]-3-yl)benzo[d]oxazol-5-yl)methyl)-L-proline], with 0.1 to 5 nM; and `Cc1c(-c2nc3cc(CN4CCC[C@H]4C(=O)O)c(OC(F)F)cc3o2)cccc1-c1cccc(-c2nc3cc(CN4CC(C)C(N)C4)cc(C#N)c3o2)c1C` (stereo partly drawn) [Example 156], with 0.1 to 5 nM.
The same measure, in the same setting: as for `Cc1c(-c2nc3cc(CN(C)C)c(OCc4cncc(S(C)(=O)=O)c4)cc3o2)cccc1-c1cccc(-c2nc3cc(CN4CCC[C@H]4C(=O)O)c(OC(F)F)cc3o2)c1C` [Example 123, ((6-(difluoromethoxy)-2-(3′-(5-((dimethylamino)methyl)-6-((5-(methylsulfonyl)pyridin-3-yl)methoxy)benzo[d]oxazol-2-yl)-2,2′-dimethyl-[1,1′-biphenyl]-3-yl)benzo[d]oxazol-5-yl)methyl)-L-proline], the figure is 0.1 to 5 nM; as for `Cc1c(Nc2cc(CN3CCCC3)ccn2)cccc1-c1cccc(-c2nc3cc(OC(F)F)c(CN4CCC[C@H]4C(=O)O)cc3o2)c1C` [Example 183, ((5-(difluoromethoxy)-2-(2,2′-dimethyl-3′-((4-(pyrrolidin-1-ylmethyl)pyridin-2-yl)amino)-[1,1′-biphenyl]-3-yl)benzo[d]oxazol-6-yl)methyl)-L-proline], 5 to 50 nM.

Usually IC50 stands for the midpoint of a concentration-inhibition curve.
